According to PubChem BioAssay (NCI):
“And” between values parts separate entries of the source, which are not always exact repeats. Equal values may be shown once.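 Five compound concentrations were applied to cells in 96-well plates for 48 hours; endpoints were derived by simple linear interpolation of the resulting dose-response curve. Here, GI50 denotes the concentration required for 50% inhibition of growth. At the TGI there is no net growth.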

What was measured:
Test in all cases: growth of human tumour cells (NCI), 48 h
M19-MEL melanoma = tested on: M19-MEL melanoma
HCC-2998 colon = tested on: HCC-2998 colon
MCF7 breast = tested on: MCF7 breast
KM12 colon = tested on: KM12 colon
RPMI-8226 leukemia = tested on: RPMI-8226 leukemia
NCI-H460 lung = tested on: NCI-H460 lung
UACC-62 melanoma = tested on: UACC-62 melanoma
BT-549 breast = tested on: BT-549 breast
MALME-3M melanoma = tested on: MALME-3M melanoma

| Structure (SMILES) | TGI (M19-MEL melanoma) | TGI (HCC-2998 colon) | TGI (MCF7 breast) | TGI (KM12 colon) | TGI (RPMI-8226 leukemia) | TGI (NCI-H460 lung) | TGI (UACC-62 melanoma) | TGI (BT-549 breast) | TGI (MALME-3M melanoma) | GI50 (M19-MEL melanoma) | GI50 (HCC-2998 colon) | GI50 (KM12 colon) | GI50 (RPMI-8226 leukemia) | GI50 (NCI-H460 lung) | GI50 (UACC-62 melanoma) | GI50 (MALME-3M melanoma) | GI50 (MCF7 breast) | GI50 (BT-549 breast) |
| --- | --- | --- | --- | --- | --- | --- | --- | --- | --- | --- | --- | --- | --- | --- | --- | --- | --- | --- |
| COc1c(CC=C(C)C)c(O)c(C(CC(C)C)c2c(O)c(CC=C(C)C)c(O)c(C(C)=O)c2O)c(O)c1C(C)=O (stereo not given) | 5.13 µM | 1.69 µM | 4.84 µM | 5.05 µM | 4.17 µM | 10.2 µM | 2.22 µM | 14.9 µM | 6.45 µM | – | – | – | – | – | – | – | – | – |
| c1ccc(CN2COc3c(ccc4c5c(ccc34)CN(Cc3ccccc3)CO5)C2)cc1 | > 100 µM | > 100 µM | > 100 µM | > 100 µM | > 100 µM | > 100 µM | > 100 µM | > 100 µM | > 100 µM | – | – | – | – | – | – | – | – | – |
| COc1c(OC(C)C)cc2cc(O)c(C(=O)NC3Cc4ccc(c(Cl)n4)O[C@@H]4C=C5C#C/C(=C\C#CC6OC56C4OC4CC(C)(O)C(O)C(C)O4)C(OC4CC(O)C(N(C)C)C(C)O4)COC3=O)cc2c1OC (stereo not given in full) | 37.5 µg/mL | > 36.3 µM and 37.5 µg/mL | > 36.3 µM | > 36.3 µM and 37.5 µg/mL | 3.67 µg/mL | > 36.3 µM and 7.13 µg/mL | 21 µM and 7.44 µg/mL | > 36.3 µM | > 36.3 µM and 37.5 µg/mL | 1.68 µg/mL | 21 µg/mL | > 36.3 µM and 10.1 µg/mL | 0.348 µg/mL | 3.81 µM and 0.0528 µg/mL | 4.33 µM and 0.511 µg/mL | 0.533 µg/mL | – | – |
| O=c1[nH]c2ccccc2n1C1CCN(CCCC(c2ccc(F)cc2)c2ccc(F)cc2)CC1 | 13.1 µM | 2.9 µM and 3.84 µM | 3.1 µM and 11.8 µM | 3.4 µM and 22.1 µM | 8.97 µM and 20.4 µM | 3.4 µM and 12 µM | 2.75 µM and 23.5 µM | 3.31 µM and 23.6 µM | 3.42 µM and 5.09 µM | – | 1.5 µM | 1.76 µM and 6.97 µM | 2.06 µM and 3.96 µM | 1.75 µM and 4.26 µM | 1.38 µM and 9.92 µM | 1.71 µM | 1.59 µM and 5.3 µM | 1.72 µM and 8.47 µM |
| C/C(=N\NC(=S)N1CCN(c2ccccn2)CC1)c1ncccn1 | 2.67 µM and 11.2 µM | 5.21 µM and 13.5 µM | 13.4 µM | 5.92 µM and 15.1 µM | 2.94 µM and 12.1 µM | 5.88 µM and 14 µM | 0.58 µM and 4.19 µM | 18.8 µM | 5.93 µM and 18.3 µM | 1.54 µM | 0.177 µM | 0.153 µM | < 0.0205 µM | 0.0538 µM | 0.057 µM | 0.55 µM | – | 0.0936 µM |
| CC(C)(C)c1cc(C(=O)O)c2c(c1)C(=O)OC2(c1ccccc1)c1ccccc1C(=O)O (stereo not given) | > 100 µM | > 100 µM | > 100 µM | > 100 µM | > 100 µM | > 100 µM | > 100 µM | > 100 µM | > 100 µM | – | – | – | > 100 µM | – | – | – | > 100 µM | > 100 µM |
